# The supplement of paper PMC10307832
# What was measured:
# Experiment in all cases: relative viability (nuclei count vs DMSO), 5 days (fraction); higher = more cells survive
# HARA = tested on: HARA
# How it was run: (§1)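 Lung cancer cell lines, seeded in 1536-well plates, were treated the following day by pin tool with a single drug or with five library-drug doses (not always all listed) in √10 steps on top of a fixed anchor-drug dose. Cells were fixed and nuclei stained in one step after 5 days, and nuclei were counted. Relative viability is the nuclei count for treated wells divided by that for vehicle wells, reported as medians of duplicate plates.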
# NCI-H1975 = tested on: NCI-H1975
# How it was run: as §1
# NCI-H2126 = tested on: NCI-H2126
# How it was run: as §1
# NCI-H1666 = tested on: NCI-H1666
# How it was run: as §1
# RERF-LC-KJ = tested on: RERF-LC-KJ
# How it was run: as §1
# NCI-H1651 = tested on: NCI-H1651
# How it was run: as §1
# NCI-H2085 = tested on: NCI-H2085
# How it was run: as §1
# ABC-1 = tested on: ABC-1
# How it was run: as §1
# NCI-H1734 = tested on: NCI-H1734
# How it was run: as §1
# NCI-H838 = tested on: NCI-H838
# How it was run: as §1
# NCI-H520 = tested on: NCI-H520
# How it was run: as §1
# SW 900 = tested on: SW 900
# How it was run: as §1
# A-427 = tested on: A-427
# How it was run: as §1
# NCI-H460 = tested on: NCI-H460
# How it was run: as §1
# NCI-H661 = tested on: NCI-H661
# How it was run: as §1
# LCLC-103H = tested on: LCLC-103H
# How it was run: as §1
# LOU-NH91 = tested on: LOU-NH91
# How it was run: as §1
# NCI-H647 = tested on: NCI-H647
# How it was run: as §1
# NCI-H727 = tested on: NCI-H727
# How it was run: as §1
# BEN = tested on: BEN
# How it was run: as §1
# NCI-H1944 = tested on: NCI-H1944
# How it was run: as §1
structure (smiles),measurement,setting,value
Cc1cn(-c2cc(NC(=O)c3ccc(C)c(Nc4nccc(-c5cccnc5)n4)c3)cc(C(F)(F)F)c2)cn1 [Nilotinib] + Nc1ncn([C@H]2C[C@H](O)[C@@H](CO)O2)c(=O)n1 [Decitabine] (partner 2 µM),relative viability,HARA; first compound 0.001 µM,0.383
same,relative viability,HARA; first compound 0.003162 µM,0.681
same,relative viability,HARA; first compound 0.01 µM,0.856
same,relative viability,HARA; first compound 0.03162 µM,0.47
same,relative viability,HARA; first compound 0.1 µM,0.649
same,relative viability,NCI-H1975; first compound 0.001 µM,0.339
same,relative viability,NCI-H1975; first compound 0.003162 µM,0.393
same,relative viability,NCI-H1975; first compound 0.01 µM,0.383
same,relative viability,NCI-H1975; first compound 0.03162 µM,0.389
same,relative viability,NCI-H1975; first compound 0.1 µM,0.275
same,relative viability,NCI-H2126; first compound 0.001 µM,0.541
same,relative viability,NCI-H2126; first compound 0.003162 µM,0.675
same,relative viability,NCI-H2126; first compound 0.01 µM,0.564
same,relative viability,NCI-H2126; first compound 0.03162 µM,0.614
same,relative viability,NCI-H2126; first compound 0.1 µM,0.568
same,relative viability,NCI-H1666; first compound 0.001 µM,0.698
same,relative viability,NCI-H1666; first compound 0.01 µM,0.697
same,relative viability,NCI-H1666; first compound 0.03162 µM,0.606
same,relative viability,NCI-H1666; first compound 0.1 µM,0.613
same,relative viability,RERF-LC-KJ; first compound 0.001 µM,0.732
same,relative viability,RERF-LC-KJ; first compound 0.003162 µM,0.796
same,relative viability,RERF-LC-KJ; first compound 0.01 µM,0.771
same,relative viability,RERF-LC-KJ; first compound 0.03162 µM,0.653
same,relative viability,RERF-LC-KJ; first compound 0.1 µM,0.449
same,relative viability,NCI-H1651; first compound 0.001 µM,0.572
same,relative viability,NCI-H1651; first compound 0.003162 µM,0.734
same,relative viability,NCI-H1651; first compound 0.01 µM,0.689
same,relative viability,NCI-H1651; first compound 0.03162 µM,0.535
same,relative viability,NCI-H1651; first compound 0.1 µM,0.288
same,relative viability,NCI-H2085; first compound 0.001 µM,0.591
same,relative viability,NCI-H2085; first compound 0.003162 µM,0.619
same,relative viability,NCI-H2085; first compound 0.01 µM,0.675
same,relative viability,NCI-H2085; first compound 0.03162 µM,0.794
same,relative viability,NCI-H2085; first compound 0.1 µM,0.76
same,relative viability,ABC-1; first compound 0.001 µM,0.987
same,relative viability,ABC-1; first compound 0.003162 µM,0.946
same,relative viability,ABC-1; first compound 0.01 µM,1.05
same,relative viability,ABC-1; first compound 0.03162 µM,0.978
same,relative viability,ABC-1; first compound 0.1 µM,0.96
same,relative viability,NCI-H1734; first compound 0.001 µM,0.526
same,relative viability,NCI-H1734; first compound 0.003162 µM,0.605
same,relative viability,NCI-H1734; first compound 0.01 µM,0.629
same,relative viability,NCI-H1734; first compound 0.03162 µM,0.576
same,relative viability,NCI-H1734; first compound 0.1 µM,0.455
same,relative viability,NCI-H838; first compound 0.001 µM,0.44
same,relative viability,NCI-H838; first compound 0.003162 µM,0.532
same,relative viability,NCI-H838; first compound 0.01 µM,0.522
same,relative viability,NCI-H838; first compound 0.03162 µM,0.489
same,relative viability,NCI-H838; first compound 0.1 µM,0.637
same,relative viability,NCI-H520; first compound 0.001 µM,0.473
same,relative viability,NCI-H520; first compound 0.003162 µM,0.653
same,relative viability,NCI-H520; first compound 0.01 µM,0.613
same,relative viability,NCI-H520; first compound 0.03162 µM,0.564
same,relative viability,NCI-H520; first compound 0.1 µM,0.649
same,relative viability,SW 900; first compound 0.003162 µM,0.579
same,relative viability,SW 900; first compound 0.01 µM,0.724
same,relative viability,SW 900; first compound 0.03162 µM,0.743
same,relative viability,SW 900; first compound 0.1 µM,0.577
same,relative viability,A-427; first compound 0.001 µM,0.586
same,relative viability,A-427; first compound 0.003162 µM,0.565
same,relative viability,A-427; first compound 0.01 µM,0.658
same,relative viability,A-427; first compound 0.03162 µM,0.663
same,relative viability,A-427; first compound 0.1 µM,0.695
same,relative viability,NCI-H460; first compound 0.001 µM,0.443
same,relative viability,NCI-H460; first compound 0.003162 µM,0.648
same,relative viability,NCI-H460; first compound 0.01 µM,0.56
same,relative viability,NCI-H460; first compound 0.03162 µM,0.325
same,relative viability,NCI-H460; first compound 0.1 µM,0.306
same,relative viability,NCI-H661; first compound 0.001 µM,0.554
same,relative viability,NCI-H661; first compound 0.003162 µM,0.56
same,relative viability,NCI-H661; first compound 0.01 µM,0.644
same,relative viability,NCI-H661; first compound 0.03162 µM,0.469
same,relative viability,NCI-H661; first compound 0.1 µM,0.546
same,relative viability,LCLC-103H; first compound 0.001 µM,0.77
same,relative viability,LCLC-103H; first compound 0.003162 µM,0.883
same,relative viability,LCLC-103H; first compound 0.01 µM,0.815
same,relative viability,LCLC-103H; first compound 0.03162 µM,0.744
same,relative viability,LCLC-103H; first compound 0.1 µM,0.721
same,relative viability,LOU-NH91; first compound 0.001 µM,0.776
same,relative viability,LOU-NH91; first compound 0.003162 µM,0.864
same,relative viability,LOU-NH91; first compound 0.01 µM,0.889
same,relative viability,LOU-NH91; first compound 0.03162 µM,0.898
same,relative viability,LOU-NH91; first compound 0.1 µM,0.837
same,relative viability,NCI-H647; first compound 0.001 µM,0.396
same,relative viability,NCI-H647; first compound 0.003162 µM,0.446
same,relative viability,NCI-H647; first compound 0.01 µM,0.573
same,relative viability,NCI-H647; first compound 0.03162 µM,0.448
same,relative viability,NCI-H647; first compound 0.1 µM,0.528
same,relative viability,NCI-H727; first compound 0.001 µM,0.67
same,relative viability,NCI-H727; first compound 0.003162 µM,0.818
same,relative viability,NCI-H727; first compound 0.01 µM,0.825
same,relative viability,NCI-H727; first compound 0.03162 µM,0.715
same,relative viability,NCI-H727; first compound 0.1 µM,0.606
same,relative viability,BEN; first compound 0.001 µM,0.787
same,relative viability,BEN; first compound 0.003162 µM,0.727
same,relative viability,BEN; first compound 0.01 µM,0.622
same,relative viability,BEN; first compound 0.03162 µM,0.801
same,relative viability,BEN; first compound 0.1 µM,0.516
same,relative viability,NCI-H1944; first compound 0.001 µM,0.445
same,relative viability,NCI-H1944; first compound 0.003162 µM,0.505
same,relative viability,NCI-H1944; first compound 0.01 µM,0.512
same,relative viability,NCI-H1944; first compound 0.03162 µM,0.591
same,relative viability,NCI-H1944; first compound 0.1 µM,0.537
